Patent US10758534B2 (Vertex Pharmaceuticals Incorporated, priority 2014, dated 2020)

Biological target: T1, F508del (Homo sapiens, UniProt P13569, DEL508-508)
T1 construct: expressed in transfected cells
Assay: Protocol 2: FRET membrane potential optical assay (VIPR), identification of correction compounds
Assay type: cell-based
Conditions: F508del CFTR modulator activity; compounds of Table 1; read-out: EC30
Method in brief: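 Single-addition HTS format: F508del-expressing NIH3T3 cells pre-incubated 16 hrs at 37° C. ± compound, with 27° C. culture as positive control. Channel activation by forskolin 10 μM and genistein 20 μM upon switch to gluconate bath, pH 7.4; read-out is FRET-based depolarization signal.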

T1 sequence (P13569 with tags, fused parts or gaps DEL508-508): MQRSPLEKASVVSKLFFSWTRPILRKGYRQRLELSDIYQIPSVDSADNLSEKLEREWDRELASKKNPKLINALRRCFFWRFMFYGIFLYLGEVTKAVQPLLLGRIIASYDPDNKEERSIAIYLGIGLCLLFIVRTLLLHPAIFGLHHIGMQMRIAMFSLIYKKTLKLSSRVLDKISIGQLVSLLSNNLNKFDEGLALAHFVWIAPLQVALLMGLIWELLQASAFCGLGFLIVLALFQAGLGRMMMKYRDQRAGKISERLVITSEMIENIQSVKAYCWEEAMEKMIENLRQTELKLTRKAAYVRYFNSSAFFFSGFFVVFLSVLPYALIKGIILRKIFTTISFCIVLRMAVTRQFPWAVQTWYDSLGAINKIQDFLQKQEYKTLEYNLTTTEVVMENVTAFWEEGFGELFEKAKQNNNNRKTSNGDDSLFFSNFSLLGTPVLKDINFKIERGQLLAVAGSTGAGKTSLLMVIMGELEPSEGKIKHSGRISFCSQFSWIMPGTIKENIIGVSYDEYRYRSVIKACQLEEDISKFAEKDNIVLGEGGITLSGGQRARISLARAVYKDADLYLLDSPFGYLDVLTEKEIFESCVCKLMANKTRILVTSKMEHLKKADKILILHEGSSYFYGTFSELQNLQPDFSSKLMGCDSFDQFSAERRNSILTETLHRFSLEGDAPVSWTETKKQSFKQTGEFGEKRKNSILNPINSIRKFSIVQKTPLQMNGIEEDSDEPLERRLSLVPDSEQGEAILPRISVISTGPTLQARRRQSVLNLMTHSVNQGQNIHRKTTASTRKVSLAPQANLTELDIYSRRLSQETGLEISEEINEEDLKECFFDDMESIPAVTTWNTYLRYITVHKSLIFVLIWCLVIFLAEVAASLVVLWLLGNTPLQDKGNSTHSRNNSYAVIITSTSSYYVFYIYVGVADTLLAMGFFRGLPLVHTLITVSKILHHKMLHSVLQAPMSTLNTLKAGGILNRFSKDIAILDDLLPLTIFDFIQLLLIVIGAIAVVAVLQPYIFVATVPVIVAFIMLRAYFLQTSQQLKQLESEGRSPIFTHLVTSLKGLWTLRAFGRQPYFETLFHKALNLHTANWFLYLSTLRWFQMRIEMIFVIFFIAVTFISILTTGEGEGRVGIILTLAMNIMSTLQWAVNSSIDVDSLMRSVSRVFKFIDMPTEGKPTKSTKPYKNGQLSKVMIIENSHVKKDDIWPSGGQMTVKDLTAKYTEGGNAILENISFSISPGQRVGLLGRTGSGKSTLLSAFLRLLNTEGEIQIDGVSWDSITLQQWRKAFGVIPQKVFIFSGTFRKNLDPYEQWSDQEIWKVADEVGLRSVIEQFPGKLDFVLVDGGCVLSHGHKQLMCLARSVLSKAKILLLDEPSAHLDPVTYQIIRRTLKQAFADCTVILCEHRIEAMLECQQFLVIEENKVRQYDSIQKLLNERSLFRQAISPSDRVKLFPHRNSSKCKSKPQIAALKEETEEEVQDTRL

| Compound | EC30 [nM] |
| --- | --- |
| CC1CN(c2ncccc2C(=O)NS(=O)(=O)c2cccc(Nc3ccc(F)c(F)c3)n2)C(C)(C)C1 (stereo not drawn) [Compound 2341, N—[[6-(3,4-difluoroanilino)-2-pyridyl]sulfonyl]-2-(2,2,4-trimethylpyrrolidin-1-yl)pyridine-3-carboxamide] | < 3000 |
| CC1CN(c2ncccc2C(=O)NS(=O)(=O)c2cccc(OCC3CC3)n2)C(C)(C)C1 (stereo not drawn) [Compound 2342, N—[[6-(cyclopropylmethoxy)-2-pyridyl]sulfonyl]-2-(2,2,4-trimethylpyrrolidin-1-yl)pyridine-3-carboxamide] | < 3000 |
| CC(C)COc1cc(F)cc(-c2ccc(C(=O)NS(=O)(=O)N3C[C@H]4C[C@@H]3CO4)c(N3C[C@@H](C)CC3(C)C)n2)c1 [Compound 2347, 6-(3-fluoro-5-isobutoxy-phenyl)-N—[[(1R,4R)-2-oxa-5-azabicyclo[2.2.1]heptan-5-yl]sulfonyl]-2-[(4S)-2,2,4-trimethylpyrrolidin-1-yl]pyridine-3-carboxamide] | < 3000 |
| Cc1cc(F)cc(-c2ccc(C(=O)NS(=O)(=O)c3ccc[nH]c3=O)c(N3C[C@@H](C)CC3(C)C)n2)c1 [Compound 2348, 6-(3-fluoro-5-methyl-phenyl)-N-[(2-oxo-1H-pyridin-3-yl)sulfonyl]-2-[(4S)-2,2,4-trimethylpyrrolidin-1-yl]pyridine-3-carboxamide] | < 3000 |
| C[C@@H]1CN(c2nc(-c3cc(O)cc(F)c3)ccc2C(=O)NS(=O)(=O)c2cccnc2N)C(C)(C)C1 [Compound 2349, N-[(2-amino-3-pyridyl)sulfonyl]-6-(3-fluoro-5-hydroxy-phenyl)-2-[(4S)-2,2,4-trimethylpyrrolidin-1-yl]pyridine-3-carboxamide] | 3000 to 10000 |
| CC1CN(c2ncccc2C(=O)NS(=O)(=O)c2cccc(NCC(F)F)n2)C(C)(C)C1 (stereo not drawn) [Compound 2350, N—[[6-(2,2-difluoroethylamino)-2-pyridyl]sulfonyl]-2-(2,2,4-trimethylpyrrolidin-1-yl)pyridine-3-carboxamide] | 3000 to 10000 |
| C[C@@H]1CN(c2nc(C3CCCCO3)ccc2C(=O)NS(=O)(=O)c2cccnc2N)C(C)(C)C1 (stereo partly drawn) [Compound 2351, N-[(2-amino-3-pyridyl)sulfonyl]-6-tetrahydropyran-2-yl-2-[(4S)-2,2,4-trimethylpyrrolidin-1-yl]pyridine-3-carboxamide] | < 3000 |
| C[C@@H]1CN(c2nc(-c3ccc4c(ccn4C)c3)ccc2C(=O)NS(=O)(=O)c2cccnc2N)C(C)(C)C1 [Compound 2352, N-[(2-amino-3-pyridyl)sulfonyl]-6-(1-methylindol-5-yl)-2-[(4S)-2,2,4-trimethylpyrrolidin-1-yl]pyridine-3-carboxamide] | < 3000 |
| CCOCCNc1cccc(S(=O)(=O)NC(=O)c2cccnc2N2CC(C)CC2(C)C)n1 (stereo not drawn) [Compound 2354, N—[[6-(2-ethoxyethylamino)-2-pyridyl]sulfonyl]-2-(2,2,4-trimethylpyrrolidin-1-yl)pyridine-3-carboxamide] | 3000 to 10000 |
| COc1cc(Nc2cccc(S(=O)(=O)NC(=O)c3cccnc3N3CC(C)CC3(C)C)n2)cc(OC)c1 (stereo not drawn) [Compound 2357, N—[[6-(3,5-dimethoxyanilino)-2-pyridyl]sulfonyl]-2-(2,2,4-trimethylpyrrolidin-1-yl)pyridine-3-carboxamide] | < 3000 |
| CC(C)Oc1ccn(-c2ccc(C(=O)NS(=O)(=O)c3ccc[nH]c3=O)c(N3C[C@@H](C)CC3(C)C)n2)n1 [Compound 2360, 6-(3-isopropoxypyrazol-1-yl)-N-[(2-oxo-1H-pyridin-3-yl)sulfonyl]-2-[(4S)-2,2,4-trimethylpyrrolidin-1-yl]pyridine-3-carboxamide] | 3000 to 10000 |
| CC1CC=C(c2cnc(N3CC(C)CC3(C)C)c(C(=O)NS(=O)(=O)c3cccc(N)n3)c2)CC1 (stereo not drawn) [Compound 2361, N-[(6-amino-2-pyridyl)sulfonyl]-5-(4-methylcyclohexen-1-yl)-2-(2,2,4-trimethylpyrrolidin-1-yl)pyridine-3-carboxamide] | < 3000 |
| Cc1ccc(-c2ccc(C(=O)NS(=O)(=O)c3cccc(N)n3)c(N3CC(C)CC3(C)C)n2)nc1NCC(C)C (stereo not drawn) [Compound 2362, N-[(6-amino-2-pyridyl)sulfonyl]-6-[6-(isobutylamino)-5-methyl-2-pyridyl]-2-(2,2,4-trimethylpyrrolidin-1-yl)pyridine-3-carboxamide] | < 3000 |
| CCOc1cc(-c2ccc(C(=O)NS(=O)(=O)c3cccc(N)n3)c(N3C[C@@H](C)CC3(C)C)n2)cc(C)n1 [Compound 2364, N-[(6-amino-2-pyridyl)sulfonyl]-6-(2-ethoxy-6-methyl-4-pyridyl)-2-[(4S)-2,2,4-trimethylpyrrolidin-1-yl]pyridine-3-carboxamide] | < 3000 |
| CC1CN(c2ncccc2C(=O)NS(=O)(=O)c2cccc(NCc3cccc(C(F)(F)F)n3)n2)C(C)(C)C1 (stereo not drawn) [Compound 2365, N—[[6-[[6-(trifluoromethyl)-2-pyridyl]methylamino]-2-pyridyl]sulfonyl]-2-(2,2,4-trimethylpyrrolidin-1-yl)pyridine-3-carboxamide] | < 3000 |
| C[C@@H]1CN(c2nc(-c3ccc(Cl)cc3)ccc2C(=O)NS(=O)(=O)c2cccnc2N)C(C)(C)C1 [Compound 2367, N-[(2-amino-3-pyridyl)sulfonyl]-6-(4-chlorophenyl)-2-[(4S)-2,2,4-trimethylpyrrolidin-1-yl]pyridine-3-carboxamide] | < 3000 |
| CC(C)c1ccc(-c2ccc(C(=O)NS(=O)(=O)c3cccnc3N)c(N3C[C@@H](C)CC3(C)C)n2)cc1 [Compound 2368, N-[(2-amino-3-pyridyl)sulfonyl]-6-(4-isopropylphenyl)-2-[(4S)-2,2,4-trimethylpyrrolidin-1-yl]pyridine-3-carboxamide] | < 3000 |
| COc1ccc(-c2ccc(C(=O)NS(=O)(=O)c3ccc[nH]c3=O)c(N3C[C@@H](C)CC3(C)C)n2)cc1C [Compound 2369, 6-(4-methoxy-3-methyl-phenyl)-N-[(2-oxo-1H-pyridin-3-yl)sulfonyl]-2-[(4S)-2,2,4-trimethylpyrrolidin-1-yl]pyridine-3-carboxamide] | < 3000 |
| C[C@@H]1CN(c2nc(C(C)(C)C)c(C(O)C(O)C(C)(C)C)cc2C(=O)NS(=O)(=O)c2cccc(N)n2)C(C)(C)C1 (stereo partly drawn) [Compound 2370] | < 3000 |
| CC1CN(c2ncccc2C(=O)NS(=O)(=O)c2cccc(OC3CCC3)n2)C(C)(C)C1 (stereo not drawn) [Compound 2371, N—[[6-(cyclobutoxy)-2-pyridyl]sulfonyl]-2-(2,2,4-trimethylpyrrolidin-1-yl)pyridine-3-carboxamide] | < 3000 |

More lines, now with the values ahead:

| EC30 [nM] | Compound |
| --- | --- |
| < 3000 | CCCN(CCOC)c1cccc(S(=O)(=O)NC(=O)c2cccnc2N2CC(C)CC2(C)C)n1 (stereo not drawn) [Compound 2343, N—[[6-[2-methoxyethyl(propyl)amino]-2-pyridyl]sulfonyl]-2-(2,2,4-trimethylpyrrolidin-1-yl)pyridine-3-carboxamide] |
| < 3000 | C[C@@H]1CN(c2nc(C(C)(C)C)c(C3=CCN(C(=O)CC(C)(C)C)CC3)cc2C(=O)NS(=O)(=O)c2cccc(N)n2)C(C)(C)C1 [Compound 2344, N-[(6-amino-2-pyridyl)sulfonyl]-6-tert-butyl-5-[1-(3,3-dimethylbutanoyl)-3,6-dihydro-2H-pyridin-4-yl]-2-[(4S)-2,2,4-trimethylpyrrolidin-1-yl]pyridine-3-carboxamide] |
| < 3000 | Cc1ccc(-c2ccc(C(=O)NS(=O)(=O)c3cccnc3N)c(N3C[C@@H](C)CC3(C)C)n2)cc1F [Compound 2345, N-[(2-amino-3-pyridyl)sulfonyl]-6-(3-fluoro-4-methyl-phenyl)-2-[(4S)-2,2,4-trimethylpyrrolidin-1-yl]pyridine-3-carboxamide] |
| < 3000 | CC(C)CCN(C)c1cccc(S(=O)(=O)NC(=O)c2cccnc2N2CC(C)CC2(C)C)n1 (stereo not drawn) [Compound 2346, N—[[6-[isopentyl(methyl)amino]-2-pyridyl]sulfonyl]-2-(2,2,4-trimethylpyrrolidin-1-yl)pyridine-3-carboxamide] |
| < 3000 | CC1CN(c2ncccc2C(=O)NS(=O)(=O)c2cccc(Nc3cccc(OC(C)C)c3)n2)C(C)(C)C1 (stereo not drawn) [Compound 2353, N—[[6-(3-isopropoxyanilino)-2-pyridyl]sulfonyl]-2-(2,2,4-trimethylpyrrolidin-1-yl)pyridine-3-carboxamide] |
| < 3000 | COc1c(F)cccc1-c1ccc(C(=O)NS(=O)(=O)c2cccnc2N)c(N2C[C@@H](C)CC2(C)C)n1 [Compound 2355, N-[(2-amino-3-pyridyl)sulfonyl]-6-(3-fluoro-2-methoxy-phenyl)-2-[(4S)-2,2,4-trimethylpyrrolidin-1-yl]pyridine-3-carboxamide] |
| < 3000 | COc1cc(F)ccc1-c1ccc(C(=O)NS(=O)(=O)c2ccc[nH]c2=O)c(N2C[C@@H](C)CC2(C)C)n1 [Compound 2356, 6-(4-fluoro-2-methoxy-phenyl)-N-[(2-oxo-1H-pyridin-3-yl)sulfonyl]-2-[(4S)-2,2,4-trimethylpyrrolidin-1-yl]pyridine-3-carboxamide] |
| 3000 to 10000 | CC1CN(c2ncccc2C(=O)NS(=O)(=O)c2cccc(NCCc3ccccn3)n2)C(C)(C)C1 (stereo not drawn) [Compound 2359, N—[[6-[2-(2-pyridyl)ethylamino]-2-pyridyl]sulfonyl]-2-(2,2,4-trimethylpyrrolidin-1-yl)pyridine-3-carboxamide] |
| 3000 to 10000 | Cc1ccc(-c2ccc(C(=O)NS(=O)(=O)c3cccnc3N)c(N3C[C@@H](C)CC3(C)C)n2)cn1 [Compound 2363, N-[(2-amino-3-pyridyl)sulfonyl]-6-(6-methyl-3-pyridyl)-2-[(4S)-2,2,4-trimethylpyrrolidin-1-yl]pyridine-3-carboxamide] |
| < 3000 | C[C@@H]1CN(c2nc(-c3cccc(OC(F)(F)F)c3)ccc2C(=O)NS(=O)(=O)c2cccc(N)n2)C(C)(C)C1 [Compound 2366, N-[(6-amino-2-pyridyl)sulfonyl]-6-[3-(trifluoromethoxy)phenyl]-2-[(4S)-2,2,4-trimethylpyrrolidin-1-yl]pyridine-3-carboxamide] |
